From US20250388605A1, “HETEROBIFUNCTIONAL COMPOUNDS AND METHODS OF TREATING DISEASE” (Halda Therapeutics OpCo, Inc., priority 2022, published 2025)

Columns and labels:
BRD4-BD1 = target: T1, BRD4-BD1 (Homo sapiens, UniProt O60885); assay: Binding affinity to BRD4-BD1 (bromoKdELECT assay); conditions: 11-point 3-fold dilution series
T1 construct: made in house; host or cells: T7 phage grown in an E. coli host derived from the BL21 strain

[1] = test system: T-Rex 293 cell line SC3 cells having increased expression of androgen receptor protein due to exposure to doxycycline; assay: Cellular growth inhibition, T-Rex 293 SC3 cells with doxycycline (increased androgen receptor expression), CellTiter-Glo; format: cell-based; conditions: T-Rex 293 SC3 cells with 10 ng/mL doxycycline (increased androgen receptor expression), 72 hours, CellTiter-Glo 2.0
Summary of the method: (§1)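 Doxycycline (10 ng/mL) was either included or omitted to toggle wild-type androgen receptor expression in SC3 cells, a T-Rex 293 clone, grown in stripped-serum, phenol red-free medium. After 72 hours with compound, viable cells were quantified by CellTiter-Glo 2.0.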

[2] = test system: T-Rex 293 cell line SC3 cells lacking increased expression of androgen receptor protein; assay: Cellular growth inhibition, T-Rex 293 SC3 cells without doxycycline (no increased androgen receptor expression), CellTiter-Glo; format: cell-based; conditions: T-Rex 293 SC3 cells not exposed to doxycycline (no increased androgen receptor expression), 72 hours
Summary of the method: as §1

VCaP cells = assay: Cellular growth inhibition assay for VCaP cells, CellTiter-Glo; format: cell-based, human; conditions: 72 hours
Summary of the method: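 GI50 values come from four-parameter curve fits of luminescence data normalized to a zero baseline. Compound, in medium with 0.5% DMSO, was added one day after plating and left for 72 h before CellTiter-Glo 2.0 addition.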

Compound: CCS(=O)(=O)Nc1ccc(Oc2cccc(N3CCN(C4CN(c5ncc(C(=O)N[C@H]6C(C)(C)[C@H](Oc7ccc(C#N)c(Cl)c7)C6(C)C)cn5)C4)CC3)c2)c(-c2cn(C)c(=O)c3[nH]ccc23)c1 [Compound I-126]
- Kd (BRD4-BD1): 50 to 500 nM
- GI50 [1]: < 500 nM
- GI50 [2]: > 3000 nM
- GI50 (VCaP cells; Homo sapiens): < 500 nM

Compound: Cn1cc(-c2cc(C(C)(C)O)ccc2Oc2cccc(CCCN3CCN(c4ncc(C(=O)N[C@H]5C(C)(C)[C@H](Oc6ccc(C#N)c(Cl)c6)C5(C)C)cn4)CC3)c2F)c2cc[nH]c2c1=O [Compound I-143]
- Kd (BRD4-BD1): 50 to 500 nM
- GI50 [1]: < 500 nM
- GI50 [2]: < 500 nM
- GI50 (VCaP cells; Homo sapiens): < 500 nM

Compound: CCS(=O)(=O)Nc1ccc(Oc2cccc(OCCOC3CCN(c4ncc(C(=O)N[C@H]5C(C)(C)[C@H](Oc6ccc(C#N)c(Cl)c6)C5(C)C)cn4)CC3)n2)c(-c2cn(C)c(=O)c3[nH]ccc23)c1 [Compound I-47, N-((1r, 3r)-3-(3-chloro-4-cyanophenoxy)-2,2,4,4-tetra-methylcyclobutyl)-2-(4-(2-((6-(4-(ethylsulfonamido)-2-(6-methyl-7-oxo-6,7-dihydro-1H-pyrrolo[2,3-c]pyridin-4-yl)phenoxy)pyridin-2-yl)oxy)ethoxy)piperidin-1-yl)pyrimidine-5-carboxamide]
- Kd (BRD4-BD1): > 2500 nM
- GI50 [1]: < 500 nM
- GI50 [2]: < 500 nM
- GI50 (VCaP cells; Homo sapiens): < 500 nM

Compound: CCS(=O)(=O)Nc1ccc(Oc2cccc(OCCOCCOCCOCCOCCOC3CCN(c4ncc(C(=O)N[C@H]5C(C)(C)[C@H](Oc6ccc(C#N)c(Cl)c6)C5(C)C)cn4)CC3)c2)c(-c2cn(C)c(=O)c3[nH]ccc23)c1 [Compound I-8]
- Kd (BRD4-BD1): 50 to 500 nM
- GI50 [1]: < 500 nM
- GI50 [2]: < 500 nM
- GI50 (VCaP cells; Homo sapiens): < 500 nM

Compound: CC(C)N(CC1CCN(c2ncc(C(=O)N[C@H]3C(C)(C)[C@H](Oc4ccc(C#N)c(Cl)c4)C3(C)C)cn2)CC1)[C@H]1C[C@H](Oc2cccc(Oc3ccc(C(C)(C)O)cc3-c3cn(C)c(=O)c4[nH]ccc34)c2F)C1 [Compound I-214]
- Kd (BRD4-BD1): < 50 nM
- GI50 [1]: < 500 nM
- GI50 [2]: < 500 nM
- GI50 (VCaP cells; Homo sapiens): < 500 nM

Compound: Cn1cc(-c2cc(C(C)(C)O)ccc2Oc2cccc(OCCC3CCN(c4ncc(C(=O)N[C@H]5C(C)(C)[C@H](Oc6ccc(C#N)c(Cl)c6)C5(C)C)cn4)CC3)c2)c2cc[nH]c2c1=O [Compound I-156]
- Kd (BRD4-BD1): 500 to 2500 nM
- GI50 [1]: < 500 nM
- GI50 [2]: > 3000 nM
- GI50 (VCaP cells): > 3000 nM

Compound: Cn1cc(-c2cc(C(C)(C)O)ccc2Oc2cccc(OCCOC3CCN(c4ncc(C(=O)N[C@H]5C(C)(C)[C@H](Oc6ccc(C#N)c(Cl)c6)C5(C)C)cn4)CC3)c2)c2cc[nH]c2c1=O [Compound I-56, N-((1r, 3r)-3-(3-chloro-4-cyanophenoxy)-2,2,4,4-tetramethylcyclobutyl)-2-(4-(2-(3-(4-(2-hydroxypropan-2-yl)-2-(6-methyl-7-oxo-6,7-dihydro-1H-pyrrolo[2,3-c]pyridin-4-yl)phenoxy)phenoxy)ethoxy)piperidin-1-yl)pyrimidine-5-carboxamide]
- Kd (BRD4-BD1): 500 to 2500 nM
- GI50 [1]: < 500 nM
- GI50 [2]: < 500 nM
- GI50 (VCaP cells; Homo sapiens): < 500 nM

Compound: Cn1cc(-c2cc(C(C)(C)O)ccc2Oc2cccc(N3CC(OC4CCN(c5ncc(C(=O)N[C@H]6C(C)(C)[C@H](Oc7ccc(C#N)c(Cl)c7)C6(C)C)cn5)CC4)C3)c2F)c2cc[nH]c2c1=O [Compound I-190]
- Kd (BRD4-BD1): 500 to 2500 nM
- GI50 [1]: < 500 nM
- GI50 [2]: 500 to 1500 nM
- GI50 (VCaP cells): < 500 nM

Compound: CCS(=O)(=O)Cc1ccc(Oc2cccc(OCCOC3CCN(c4ncc(C(=O)N[C@H]5C(C)(C)[C@H](Oc6ccc(C#N)c(Cl)c6)C5(C)C)cn4)CC3)c2)c(-c2cn(C)c(=O)c3[nH]ccc23)c1 [Compound I-54, N-((1r, 3r)-3-(3-chloro-4-cyanophenoxy)-2,2,4,4-tetramethylcyclobutyl)-2-(4-(2-(3-(4-((ethylsulfonyl)methyl)-2-(6-methyl-7-oxo-6,7-dihydro-1H-pyrrolo[2,3-c]pyridin-4-yl)phenoxy)phenoxy)ethoxy)piperidin-1-yl)pyrimidine-5-carboxamide]
- Kd (BRD4-BD1): > 2500 nM
- GI50 [1]: < 500 nM
- GI50 [2]: < 500 nM
- GI50 (VCaP cells; Homo sapiens): < 500 nM

Compound: Cc1ccc(CCCOC2CCN(c3ncc(C(=O)N[C@H]4C(C)(C)[C@H](Oc5ccc(C#N)c(Cl)c5)C4(C)C)cn3)CC2)c(C)c1Oc1ccc(C(C)(C)O)cc1-c1cn(C)c(=O)c2[nH]ccc12 [Compound I-195]
- Kd (BRD4-BD1): > 2500 nM
- GI50 [1]: < 500 nM
- GI50 [2]: > 3000 nM
- GI50 (VCaP cells; Homo sapiens): > 3000 nM

Compound: CCS(=O)(=O)c1ccc(OCC(CCCN2CCN(c3ncc(C(=O)NC4C(C)(C)C(Oc5ccc(C#N)c(Cl)c5)C4(C)C)cn3)CC2)C2CC2)c(-c2cn(C)c(=O)c3[nH]ccc23)c1 (centres unmarked) [Compound I-231, N-[3-(3-chloro-4-cyano-phenoxy)-2,2,4,4-tetramethyl-cyclobutyl]-2-[4-[4-cyclopropyl-5-[4-ethylsulfonyl-2-(6-methyl-7-oxo-1H-pyrrolo[2,3-c]pyridin-4-yl)phenoxy]pentyl]piperazin-1-yl]pyrimidine-5-carboxamide]
- Kd (BRD4-BD1): < 50 nM
- GI50 [1]: < 500 nM
- GI50 [2]: < 500 nM
- GI50 (VCaP cells; Homo sapiens): < 500 nM

Compound: Cn1cc(-c2cc(C(C)(C)O)ccc2Oc2ccc(CCOC3CCN(c4ncc(C(=O)N[C@H]5C(C)(C)[C@H](Oc6ccc(C#N)c(Cl)c6)C5(C)C)cn4)CC3)cc2)c2cc[nH]c2c1=O [Compound I-194]
- Kd (BRD4-BD1): > 2500 nM
- GI50 [1]: < 500 nM
- GI50 [2]: 1500 to 3000 nM
- GI50 (VCaP cells; Homo sapiens): 500 to 1500 nM

Compound: CCS(=O)(=O)Nc1ccc(Oc2cccc(OCCN(C)c3ncc(C(=O)N[C@H]4C(C)(C)[C@H](Oc5ccc(C#N)c(Cl)c5)C4(C)C)cn3)c2)c(-c2cn(C)c(=O)c3[nH]ccc23)c1 [Compound I-1, N-((1r, 3r)-3-(3-chloro-4-cyanophenoxy)-2,2,4,4-tetramethylcyclobutyl)-2-((2-(3-(4-(ethylsulfonamido)-2-(6-methyl-7-oxo-6,7-dihydro-1H-pyrrolo[2,3-c]pyridin-4-yl)phenoxy)phenoxy)ethyl)(methyl)amino)pyrimidine-5-carboxamide]
- Kd (BRD4-BD1): 50 to 500 nM
- GI50 [1]: < 500 nM
- GI50 [2]: 500 to 1500 nM
- GI50 (VCaP cells; Homo sapiens): < 500 nM

Compound: Cn1cc(-c2cc(C(C)(C)O)ccc2Oc2ccc(CCC3CCN(c4ncc(C(=O)N[C@H]5C(C)(C)[C@H](Oc6ccc(C#N)c(Cl)c6)C5(C)C)cn4)CC3)cc2)c2cc[nH]c2c1=O [Compound I-203]
- Kd (BRD4-BD1): > 2500 nM
- GI50 [1]: < 500 nM
- GI50 [2]: > 3000 nM
- GI50 (VCaP cells; Homo sapiens): 1500 to 3000 nM

Compound: CN(CCCc1ccc(Oc2ccc(C(C)(C)O)cc2-c2cn(C)c(=O)c3[nH]ccc23)cc1)c1ncc(C(=O)N[C@H]2C(C)(C)[C@H](Oc3ccc(C#N)c(Cl)c3)C2(C)C)cn1 [Compound I-211]
- Kd (BRD4-BD1): > 2500 nM
- GI50 [1]: < 500 nM
- GI50 [2]: < 500 nM
- GI50 (VCaP cells; Homo sapiens): < 500 nM

Compound: Cn1cc(-c2cc(C(C)(C)O)ccc2Oc2cccc(CCOC3CCN(c4ncc(C(=O)N[C@H]5C(C)(C)[C@H](Oc6ccc(C#N)c(Cl)c6)C5(C)C)cn4)CC3)c2F)c2cc[nH]c2c1=O [Compound I-147]
- Kd (BRD4-BD1): > 2500 nM
- GI50 [1]: < 500 nM
- GI50 [2]: < 500 nM
- GI50 (VCaP cells): < 500 nM

Compound: Cn1cc(-c2cc(C(C)(C)O)ccc2Oc2cccc(OCCC3CCN(c4ncc(C(=O)N[C@H]5C(C)(C)[C@H](Oc6ccc(C#N)c(Cl)c6)C5(C)C)cn4)CC3)c2F)c2cc[nH]c2c1=O [Compound I-142]
- Kd (BRD4-BD1): > 2500 nM
- GI50 [1]: < 500 nM
- GI50 [2]: 1500 to 3000 nM
- GI50 (VCaP cells; Homo sapiens): < 500 nM

Compound: Cn1cc(-c2cc(N)ccc2Oc2cccc(OCCOC3CCN(c4ncc(C(=O)N[C@H]5C(C)(C)[C@H](Oc6ccc(C#N)c(Cl)c6)C5(C)C)cn4)CC3)c2)c2cc[nH]c2c1=O [Compound I-62, 2-(4-(2-(3-(4-amino-2-(6-methyl-7-oxo-6,7-dihydro-1H-pyrrolo[2,3-c]pyridin-4-yl)phenoxy)phenoxy)ethoxy)piperidin-1-yl)-N-((1r, 3r)-3-(3-chloro-4-cyanophenoxy)-2,2,4,4-tetramethylcyclobutyl)pyrimidine-5-carboxamide]
- Kd (BRD4-BD1): > 2500 nM
- GI50 [1]: < 500 nM
- GI50 [2]: > 3000 nM
- GI50 (VCaP cells; Homo sapiens): < 500 nM

Compound: CCS(=O)(=O)Nc1ccc(Oc2cccc(OCCOC3CCN(c4ncc(C(=O)N[C@H]5C(C)(C)[C@H](Oc6ccc(C#N)c(Cl)c6)C5(C)C)cn4)CC3)c2)c(-c2cn(C)c(=O)c3c2ccn3C)c1 [Compound I-121]
- Kd (BRD4-BD1): > 2500 nM
- GI50 [1]: < 500 nM
- GI50 [2]: > 3000 nM
- GI50 (VCaP cells; Homo sapiens): < 500 nM

Compound: Cn1cc(-c2cc(C(C)(C)O)ccc2Oc2cccc(N3CC(CC4CCN(c5ncc(C(=O)N[C@H]6C(C)(C)[C@H](Oc7ccc(C#N)c(Cl)c7)C6(C)C)cn5)CC4)C3)c2F)c2cc[nH]c2c1=O [Compound I-196]
- Kd (BRD4-BD1): 50 to 500 nM
- GI50 [1]: < 500 nM
- GI50 [2]: > 3000 nM
- GI50 (VCaP cells): > 3000 nM

Compound: Cc1ccc(CCCOC2CCN(c3ncc(C(=O)N[C@H]4C(C)(C)[C@H](Oc5ccc(C#N)c(Cl)c5)C4(C)C)cn3)CC2)cc1Oc1ccc(C(C)(C)O)cc1-c1cn(C)c(=O)c2[nH]ccc12 [Compound I-192]
- Kd (BRD4-BD1): > 2500 nM
- GI50 [1]: < 500 nM
- GI50 [2]: 500 to 1500 nM
- GI50 (VCaP cells; Homo sapiens): 500 to 1500 nM

Compound: CCS(=O)(=O)Nc1ccc(Oc2cccc(OCCOC3CCN(c4ccc(C(=O)N[C@H]5C(C)(C)[C@H](Oc6ccc(C#N)c(Cl)c6)C5(C)C)nn4)CC3)c2)c(-c2cn(C)c(=O)c3[nH]ccc23)c1 [Compound I-11]
- Kd (BRD4-BD1): 50 to 500 nM
- GI50 [1]: < 500 nM
- GI50 [2]: < 500 nM
- GI50 (VCaP cells; Homo sapiens): < 500 nM

Compound: CCS(=O)(=O)Nc1ccc(Oc2cccc(N(C)C3CN(CC4CCN(c5ncc(C(=O)NC6C(C)(C)C(Oc7ccc(C#N)c(Cl)c7)C6(C)C)cn5)CC4)C3)c2)c(-c2cn(C)c(=O)c3[nH]ccc23)c1 (centres unmarked) [Compound I-39]
- Kd (BRD4-BD1): < 50 nM
- GI50 [1]: < 500 nM
- GI50 [2]: < 500 nM
- GI50 (VCaP cells; Homo sapiens): < 500 nM
